Data on 11 compounds can be found in US10428028B2, “HDAC inhibitors” (BIOMARIN PHARMACEUTICAL INC., priority 2013, dated 2019).

The first series deals with Frataxin (FXN) mRNA. Kind of series: Effect of HDAC inhibitors on frataxin (FXN) mRNA expression. The format is cell-based, human (Friedreich's ataxia patient primary lymphocytes). The note with it: Friedreich's ataxia patient primary lymphocytes, 48 hours. As for the experimental part: Blood is collected from Friedreich's ataxia patient donors into tubes containing the anti-coagulant EDTA. Primary lymphocytes are isolated using Lymphocyte Separation Medium (MP Biomedicals, Solon, Ohio) following the manufacturer's instructions and including a few modifications made by Repligen. After a final wash in Phosphate Buffered Saline (PBS), the cells are distributed into a 6-well cell culture plate in cell growth medium. The test HDAC inhibitor compound is added to cells in a dose escalating manner (usually concentrations range from 1 to 10 μM) and 0.1% DMSO is added to one well of cells as a no treatment control. […] The RNA yield and concentration is determined using a Nanodrop spectrophotometer (Thermo Fisher Scientific, Waltham, Mass.) and depending on the RNA concentration, one of two protocols is used to measure frataxin (FXN) transcript levels. […] In both methods each RNA sample is analyzed in triplicate (preferably) or duplicate (minimally) using a one-step qRT-PCR master mix that contains all the components necessary for cDNA synthesis and PCR amplification in a single, continuous reaction. […] The amount of FXN (or GAPDH) in the sample is determined as the relative quantity to the calibrator where the calibrator sample is assigned an arbitrary quantity of 1. […] The relative quantity of FXN is normalized to cell number and RNA input. […]
Regarding `Nc1ccccc1NC(=O)c1ccc2c(cnn2Cc2ccc(F)c(F)c2)c1` [Compound A9], the “Fxn >2X (concentration required for a 2-fold increase in FXN mRNA)” value was “A (A if less than 5 μM)”. On to `Nc1cc(F)ccc1NC(=O)c1ccc2c(cnn2CC2CC2)c1` [Compound A12], for which the “Fxn >2X (concentration required for a 2-fold increase in FXN mRNA)” value is “C (C if greater than 10 μM)”.

Test system in the next series: not listed separately
Kind of series: Brain penetration studies. The format is in vivo. The note with it: C57/BL6/J, mouse; mice, s.c. 5 or 50 mg/kg or i.v. 5 mg/kg; Cmax(brain)/Cmax(plasma); read-out: BPR (brain/plasma ratio). As for the experimental part:
Test compounds were prepared at either 0.5 mg/ml or 5 mg/ml in 30% hydroxypropyl-β-cyclodextrin, 100 mM sodium acetate pH 5.5, 5% DMSO. C57/BL6/J mice were dosed s.c. at 5 mg/kg or 50 mg/kg, or i.v. at 5 mg/kg. Animals were euthanized at pre-dose, 5, 15, 30 min, 1, 2 and 4 hours post-dose and plasma and brain obtained. Three animals per dose per time points were used. The levels of compound in the plasma and brain were determined by standard LC/MS/MS methods. Brain/plasma ratio (BPR) was calculated as the ratio of the Cmax(brain)/Cmax(plasma). The results are shown in Table 5, where IA corresponds to a BPR less than 0.1, D is between 0.1 and 0.2, C is 0.2 to 0.5, B comprises 0.5 to 1 and A is greater than 1.
With `Nc1ccccc1NC(=O)c1ccc2c(cnn2Cc2cccnc2)c1` [Compound A1], the Kp was in the range of 0.2 to 0.5. Consider `Nc1ccccc1NC(=O)c1ccc2c(cnn2Cc2ccccc2)c1` [Compound A2], for which the Kp was greater than 1. On the same count and under the same terms, the figure for `Cn1cc(Cn2ncc3cc(C(=O)Nc4ccccc4N)ccc32)cn1` [Compound A3] is 0.2 to 0.5. The same measure, in the same setting: the result for `Nc1ccccc1NC(=O)c1ccc2c(cnn2Cc2cncc(F)c2)c1` [Compound A4, N-(2-aminophenyl)-1-((5-fluoropyridin-3-yl)methyl)-1H-indazole-5-carboxamide] reads 0.2 to 0.5; that for `Cc1ccc(Cn2ncc3cc(C(=O)Nc4ccccc4N)ccc32)c(C)n1` [Compound A5], 0.2 to 0.5.

Take `Nc1cc(F)ccc1NC(=O)c1ccc2c(cnn2Cc2cncc(F)c2)c1` [Compound A7]: the Kp is 0.2 to 0.5.

Consider `Nc1ccccc1NC(=O)c1ccc2c(cnn2Cc2ccc(F)c(F)c2)c1` [Compound A9], for which the Kp is greater than 1. The same measure, in the same setting: the figure for `Nc1cc(F)ccc1NC(=O)c1ccc2c(cnn2CC2CC2)c1` [Compound A12] is 0.5 to 1; for `Nc1ccccc1NC(=O)c1ccc2nn(Cc3cccnc3)cc2c1` [Compound A13] it is less than 0.1. Still for that read-out and setting: the result for `Nc1ccccc1NC(=O)c1ccc2nn(Cc3cncc(F)c3)cc2c1` [Compound A14, N-(2-aminophenyl)-2-((5-fluoropyridin-3-yl)methyl)-2H-indazole-5-carboxamide] reads 0.2 to 0.5. Still for that read-out and setting: the figure for `Cc1ccc(Cn2cc3cc(C(=O)Nc4ccccc4N)ccc3n2)c(C)n1` [Compound A15] is less than 0.1.
